Experimental findings from patent US9233977B2, “Leucine-rich repeat kinase enzyme activity” (Merck Sharp & Dohme Corp., priority 2010, dated 2016) are described below.

Each structure is given as a SMILES string.

T1 sequence (Q5S007 whole entry G2019S): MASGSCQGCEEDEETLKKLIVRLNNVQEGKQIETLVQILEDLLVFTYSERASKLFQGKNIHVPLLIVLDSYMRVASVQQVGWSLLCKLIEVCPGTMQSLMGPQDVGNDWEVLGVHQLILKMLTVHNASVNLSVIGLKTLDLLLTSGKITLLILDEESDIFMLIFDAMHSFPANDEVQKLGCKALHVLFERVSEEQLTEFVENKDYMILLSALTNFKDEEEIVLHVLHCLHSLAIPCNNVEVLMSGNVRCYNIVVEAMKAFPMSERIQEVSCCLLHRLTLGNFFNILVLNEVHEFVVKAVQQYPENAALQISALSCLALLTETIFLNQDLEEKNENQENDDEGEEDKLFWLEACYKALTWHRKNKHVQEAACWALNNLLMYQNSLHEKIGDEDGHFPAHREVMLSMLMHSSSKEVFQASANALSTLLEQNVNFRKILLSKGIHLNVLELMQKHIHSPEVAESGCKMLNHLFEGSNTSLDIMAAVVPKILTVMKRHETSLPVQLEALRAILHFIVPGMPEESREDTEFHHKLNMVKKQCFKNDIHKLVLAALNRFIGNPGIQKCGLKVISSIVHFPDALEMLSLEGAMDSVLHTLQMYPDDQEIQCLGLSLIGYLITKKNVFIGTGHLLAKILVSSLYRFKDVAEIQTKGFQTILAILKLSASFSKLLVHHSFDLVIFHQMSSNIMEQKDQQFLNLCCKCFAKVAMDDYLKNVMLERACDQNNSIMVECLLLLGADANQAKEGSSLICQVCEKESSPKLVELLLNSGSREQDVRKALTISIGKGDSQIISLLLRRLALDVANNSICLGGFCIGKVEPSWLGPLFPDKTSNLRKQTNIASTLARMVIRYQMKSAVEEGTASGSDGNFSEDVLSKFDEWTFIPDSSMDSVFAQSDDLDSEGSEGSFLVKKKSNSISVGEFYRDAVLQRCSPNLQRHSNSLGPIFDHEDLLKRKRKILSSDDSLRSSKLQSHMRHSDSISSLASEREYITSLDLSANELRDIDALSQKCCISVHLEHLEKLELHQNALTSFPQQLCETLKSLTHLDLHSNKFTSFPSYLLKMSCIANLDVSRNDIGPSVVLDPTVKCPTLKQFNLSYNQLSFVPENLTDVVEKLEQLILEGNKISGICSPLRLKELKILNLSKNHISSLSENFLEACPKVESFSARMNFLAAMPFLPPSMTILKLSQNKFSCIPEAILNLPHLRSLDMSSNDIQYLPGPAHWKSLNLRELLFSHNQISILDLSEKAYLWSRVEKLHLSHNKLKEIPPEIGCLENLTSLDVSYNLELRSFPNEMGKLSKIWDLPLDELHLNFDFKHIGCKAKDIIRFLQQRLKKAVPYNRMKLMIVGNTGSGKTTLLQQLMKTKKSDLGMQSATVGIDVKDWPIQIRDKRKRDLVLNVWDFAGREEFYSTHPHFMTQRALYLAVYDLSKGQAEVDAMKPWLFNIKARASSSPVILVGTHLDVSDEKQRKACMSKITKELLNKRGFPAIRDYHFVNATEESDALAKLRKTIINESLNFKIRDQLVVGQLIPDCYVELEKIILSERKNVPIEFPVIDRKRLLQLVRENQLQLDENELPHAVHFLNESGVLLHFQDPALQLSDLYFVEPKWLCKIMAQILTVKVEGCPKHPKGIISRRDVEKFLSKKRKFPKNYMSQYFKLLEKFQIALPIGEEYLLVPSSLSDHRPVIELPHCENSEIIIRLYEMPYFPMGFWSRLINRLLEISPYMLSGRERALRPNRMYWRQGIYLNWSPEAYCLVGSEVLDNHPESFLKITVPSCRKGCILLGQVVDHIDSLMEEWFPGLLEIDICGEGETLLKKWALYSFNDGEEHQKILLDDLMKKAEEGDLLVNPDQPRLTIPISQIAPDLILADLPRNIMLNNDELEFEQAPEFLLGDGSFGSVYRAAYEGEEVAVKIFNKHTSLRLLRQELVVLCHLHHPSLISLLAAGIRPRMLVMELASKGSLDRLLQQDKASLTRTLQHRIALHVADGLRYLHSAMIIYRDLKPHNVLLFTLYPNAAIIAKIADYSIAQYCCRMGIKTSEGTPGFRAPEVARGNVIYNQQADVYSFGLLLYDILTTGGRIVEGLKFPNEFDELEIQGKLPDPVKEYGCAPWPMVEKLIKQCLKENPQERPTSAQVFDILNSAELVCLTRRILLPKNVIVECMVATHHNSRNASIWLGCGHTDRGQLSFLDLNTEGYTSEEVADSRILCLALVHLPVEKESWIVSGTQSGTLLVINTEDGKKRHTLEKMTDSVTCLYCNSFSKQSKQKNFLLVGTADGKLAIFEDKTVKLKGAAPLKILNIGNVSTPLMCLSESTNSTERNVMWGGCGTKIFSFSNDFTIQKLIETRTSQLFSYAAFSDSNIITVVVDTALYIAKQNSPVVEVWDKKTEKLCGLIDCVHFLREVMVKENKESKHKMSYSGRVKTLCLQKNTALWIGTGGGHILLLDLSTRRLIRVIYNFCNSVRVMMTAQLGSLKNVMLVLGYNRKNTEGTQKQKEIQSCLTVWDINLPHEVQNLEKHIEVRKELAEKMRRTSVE

The assay has as its target T1, LRRK2 G2019S mutant kinase (Homo sapiens, UniProt Q5S007, G2019S).
T1 construct: GST; purchased Invitrogen PV4882
The experiment in a line: LRRK2 G2019S LanthaScreen TR-FRET kinase assay. It is filed as biochemical. The following applies: LRRK2 G2019S GST-tagged protein, 75 nM Fluorescein-ERM (LRRKtide), 100 μM ATP, 1 hour at room temperature; read-out: IC50 (potency). On the procedure:
The final solvent concentration in the assay was 1% DMSO. […] Generation of raw data and workup of data to derive the IC50 (potency) and maximal inhibition at concentrations tested were performed using Merck's Assay Data Analyzer (ADA) software.
The IC50 (potency) was evaluated for the example compounds presented above.
Take `CSc1sc(-c2cc[nH]n2)c2c1C(=O)NC[C@@H]2C` [Example 21, (7R)-7-methyl-3-(methylsulfanyl)-1-(1H-pyrazol-3-yl)-6,7-dihydrothieno[3,4-c]pyridin-4(5)-one]: the IC50 turned out to be 160 nM.

On to `CSc1sc(-c2cc[nH]n2)c2c1C(=O)N(CCC1CCCCC1)CC2` [Example 71, 3-(methylsulfanyl)-5-[(2-cyclohexyl)ethyl]-1-(1H-pyrazol-3-yl)-6,7-dihydrothieno[3,4-c]pyridin-4(5)-one], for which the IC50 stood at 7500 nM.

Turning to `CSc1sc(-c2cc[nH]n2)c2c1C(=O)N(CC1CCNC1)CC2` (centres unmarked) [Example 62, 3-(methylsulfanyl)-1-(1H-pyrazol-3-yl)-5-(pyrrolidin-3-ylmethyl)-6,7-dihydrothieno[3,4-c]pyridin-4(5H)-one], the half-inhibitory concentration (IC50) is 4300 nM.

As for `CSc1sc(-c2cc[nH]n2)c2c1C(=O)N(c1ccc(C)cc1)CC2` [Example 83], the IC50 was 3300 nM.

For the compound `CSc1sc(-c2cc[nH]n2)c2c1C(=O)N(CCCCc1ccccc1)CC2` [Example 64, 5-[(4-phenyl)butyl]-3-(methylsulfanyl)-1-(1H-pyrazol-3-yl)-6,7-dihydrothieno[3,4-c]pyridin-4(5)-one], the IC50 worked out at 5000 nM.

As to `CCC(C)CSc1sc(-c2cc[nH]n2)c2c1C(=O)NCC2` (centres unmarked) [Example 44, 3-[(2-methyl)butylsulfanyl]-1-(1H-pyrazol-3-yl)-6,7-dihydrothieno[3,4-c]pyridin-4(5)-one], the half-inhibitory concentration (IC50) was determined as 130 nM.

On to `CSc1sc(-c2cc[nH]n2)c2c1C(=O)N(CCCc1ccccc1)CC2` [Example 79], for which the IC50 came to 3500 nM.

Regarding `CSc1sc(-c2cc[nH]n2)c2c1C(=O)N(CCC1CCCNC1)CC2` (centres unmarked) [Example 73, 3-(methylsulfanyl)-5-[2-(3-piperidinyl)ethyl]-1-(1H-pyrazol-3-yl)-6,7-dihydrothieno[3,4-c]pyridin-4(5)-one], the half-inhibitory concentration (IC50) was 5900 nM.

For the compound `C[C@@H]1Cc2c(-c3cc[nH]n3)sc(SCC(=O)O)c2C(=O)N1` [Example 52, (6R)-6-methyl-1-{[4-oxo-1-(1H-pyrazol-3-yl)-4,5,6,7-tetrahydrothieno[3,4-c]pyridin-3-yl]sulfanyl}acetic acid], the half-inhibitory concentration (IC50) was 2700 nM.

Turning to `CC(C)Sc1sc(-c2cc[nH]n2)c2c1C(=O)NCC2` [Example 41, 3-[2-(1-methyl)ethylsulfanyl]-1-(1H-pyrazol-3-yl)-6,7-dihydrothieno[3,4-c]pyridin-4(5)-one], the half-maximal inhibitory concentration (IC50) is 460 nM.

Consider `CCCSc1sc(-c2cc[nH]n2)c2c1C(=O)NCC2C` (stereo in doubt) [Example 28, (7S)-7-methyl-3-(propylsulfanyl)-1-(1H-pyrazol-3-yl)-6,7-dihydrothieno[3,4-c]pyridin-4(5)-one], for which the IC50 amounted to 42 nM.

With `CSc1sc(-c2cc[nH]n2)c2c1C(=O)N(CCc1ccccn1)CC2` [Example 78, 3-(methylsulfanyl)-5-[2-(2-pyridyl)ethyl]-1-(1H-pyrazol-3-yl)-6,7-dihydrothieno[3,4-c]pyridin-4(5)-one], the half-inhibitory concentration (IC50) is 5700 nM.

For the compound `CSc1sc(-c2cc[nH]n2)c2c1C(=O)N(C)CC2` [Example 75, 5-methyl-3-(methylsulfanyl)-1-(1H-pyrazol-3-yl)-6,7-dihydrothieno[3,4-c]pyridin-4(5)-one], the IC50 was found to be 3300 nM.

Turning to `CSc1sc(-c2cc[nH]n2)c2c1C(=O)N(CCN1CCCCC1)CC2` [Example 80, 3-(methylsulfanyl)-5-[2-(piperidin-1-yl)ethyl]-1-(1H-pyrazol-3-yl)-6,7-dihydrothieno[3,4-c]pyridin-4(5)-one], the IC50 amounted to 7800 nM.

Turning to `CSc1sc(-c2cc[nH]n2)c2c1C(=O)N(CCCCOc1ccccc1)CC2` [Example 68, 3-(methylsulfanyl)-5-(4-phenoxybutyl)-1-(1H-pyrazol-3-yl)-6,7-dihydrothieno[3,4-c]pyridin-4(5)-one], the IC50 came out at 3200 nM.

On to `O=C1NC2(CCC2)Cc2c(-c3cc[nH]n3)sc(SC3CCCC3)c21` [Example 32, 3′-(cyclopentylsulfanyl)-4′-oxo-1′-(1H-pyrazol-3-yl)-7′H-spiro[cyclobutane-1,6′-thieno[3,4-1]pyridine]-4′(5′H)-one], for which the IC50 came out at 140 nM.

For `CSc1sc(-c2cc[nH]n2)c2c1C(=O)N(C(=O)OC(C)(C)C)C(C)C2` (centres unmarked) [Example 4], the half-inhibitory concentration (IC50) was 4800 nM.

Regarding `CNc1sc(-c2cc[nH]n2)c2c1C(=O)NC(CC(C)C)C2` (centres unmarked) [Example 95, 3-(methylamino)-6-(2-methyl)propyl-1-(1H-pyrazol-3-yl)-6,7-dihydrothieno[3,4-c]pyridin-4(5H)-one], the half-maximal inhibitory concentration (IC50) worked out at 470 nM.

As for `CC1CNC(=O)c2c(NC3CCCC3)sc(-c3cc[nH]n3)c21` (centres unmarked) [Example 86, 3-(cyclopentylamino)-7-methyl-1-(1H-pyrazol-3-yl)-6,7-dihydrothieno[3,4-e]pyridin-4(5H)-one], the IC50 was determined as 120 nM.

On to `CSc1sc(-c2cc[nH]n2)c2c1C(=O)N(Cc1cccnc1Cl)CC2` [Example 58, 5-[(2-chloropyridin-3-yl)methyl]-3-(methylsulfanyl)-1-(1H-pyrazol-3-yl)-6,7-dihydrothieno[3,4-c]pyridin-4(5)-one], for which the 50% inhibitory concentration (IC50) amounted to 3000 nM.

With `CSc1sc(-c2cc[nH]n2)c2c1C(=O)NC(C(F)(F)F)C2` (centres unmarked) [Example 9, 6-trifiuoromethyl-3-(methylsulfanyl)-1-(1H-pyrazol-3-yl)-6,7-dihydrothieno[3,4-c]pyridin-4(5)-one], the IC50 is 190 nM.

Turning to `CSc1sc(-c2cc[nH]n2)c2c1C(=O)NCC2Cc1ccccc1` (centres unmarked) [Example 25, 7-benzyl-3-(methylsulfanyl)-1-(1H-pyrazol-3-yl)-6,7-dihydrothieno[3,4-c]pyridin-4(5H)-one], the IC50 amounted to 150 nM.

Turning to `CCN1CCc2c(-c3cc[nH]n3)sc(SC)c2C1=O` [Example 76, 5-ethyl-3-(methylsulfanyl)-1-(1H-pyrazol-3-yl)-6,7-dihydrothieno[3,4-c]pyridin-4(5)-one], the IC50 turned out to be 2200 nM.

Take `CNc1sc(-c2cc[nH]n2)c2c1C(=O)NCC2` [Example 91, 3-(methylamino)-(1H-pyrazol-3-yl)-6,7-dihydrothieno[3,4-c]pyridin-4(5H)-one]: the half-maximal inhibitory concentration (IC50) was 1400 nM.

`O=C1NCCc2c(-c3cc[nH]n3)sc(NC3CCCC3)c21` [Example 90, 3-(cyclopentylamino)-(1H-pyrazol-3-yl)-6,7-dihydrothieno[3,4-c]pyridin-4(5H)-one]: the IC50 was 360 nM.

As to `CCCSc1sc(-c2cc[nH]n2)c2c1C(=O)NCC2` [Example 43, 3-propylsulfanyl-1-(1H-pyrazol-3-yl)-6,7-dihydrothieno[3,4-c]pyridin-4(5)-one], the concentration for half-maximal inhibition (IC50) is 250 nM.

For the compound `CSc1sc(-c2cc[nH]n2)c2c1C(=O)N[C@H](c1cccnc1)C2` [Example 19, (6S)-3-(methylsulfanyl)-6-(3-pyridyl)-1-(1H-pyrazol-3-yl)-6,7-dihydrothieno[3,4-c]pyridin-4(5)-one], the IC50 is 1500 nM.

For the compound `CSc1sc(-c2cc[nH]n2)c2c1C(=O)N(CC1CCCCO1)CC2` (centres unmarked) [Example 63, 5-[(2-tetrahydropyranyl)methyl]-3-(methylsulfanyl)-1-(1H-pyrazol-3-yl)-6,7-dihydrothieno[3,4-c]pyridin-4(5)-one], the IC50 worked out at 8400 nM.

In the case of `CSc1sc(-c2cc[nH]n2)c2c1C(=O)NC(Cc1ccccc1)C2` (centres unmarked) [Example 2, 6-benzyl-3-(methylsulfanyl)-1-(1H-pyrazol-3-yl)-6,7-dihydrothieno[3,4-c]pyridin-4(5)-one], the IC50 stood at 260 nM.
